The subject of one data set is full length AR. Put plainly: LNCaP or AD1 degradation (AR FL), Western blot. It is filed as cell-based. In general terms: In western blotting, separated proteins are transferred to a membrane and probed.
The format of data set [1] is in vitro ADME. The settings on record: human liver microsomes.
Protocol: (§1) The assay was done in a final volume of 0.5 ml in duplicates (n=2). […] After pre-incubation, reaction was started by addition of 1 mM NADPH (pre-incubated at 37° C.). Incubations were carried out in triplicate and at various time-points (0, 5, 10, 15, 30 and 60 minutes) 100 μl aliquots were removed and quenched with 100 μl of acetonitrile containing internal standard. Samples were vortex mixed and centrifuged at 4000 rpm for 10 minutes. The supernatants were transferred to 96 well plates and submitted for LC-MS/MS analysis. As control, sample incubations done in absence of NADPH were included. From % PCR (% Parent Compound Remaining), rate of compound disappearance is determined (slope) and in vitro CLint (μl/min/mg protein) was calculated.
The conditions of data set [2]: for metabolism (in words): data not shown.
For data set [3] the following is noted: for serum drug level (bioavailability): rats dosed at 20 mg/kg.
Another data set is described as follows: in vivo. Particulars: male, Sprague Dawley, rat, 20 mpk.
The nature of another data set: RLM metabolism half-life. In kind it is in vitro ADME. The settings on record: rat liver microsomes.
Data set [4] in a line: Pharmacokinetics in male Sprague Dawley rats (oral 7 days, iv Day 1).
Protocol: At initial dosing, the animals were 12 weeks of age. The animals were group housed (up to three animals/cage/group) in polycarbonate cages with hardwood chip bedding. […] Water was provided fresh daily, ad libitum. […] As necessary, the 12-hour dark cycle was interrupted to accommodate study procedures. […] Individual doses were calculated based on body weights recorded on Day 1 and Day 7 of dose administration. […] A single intravenous dose was administered via a tail vein and blood sample on Day 1.
Animals were weighed at the time of animal selection and on Day 1 and Day 7 of dose administration.
Centrifugation began within 1 hour of collection. Plasma was placed into 96-well tubes with barcode labels. Plasma was maintained on dry ice prior to storage at approximately −70° C. Drug concentrations were measured by established chromatography/mass spectrometry (LC-MS/MS) methods.
Data set [5] can be described thus: High dose Hershberger experiment, 7 days oral. In kind it is in vivo, Sprague Dawley rat. The settings on record: 100 mpk oral 7 days, individual animals.
Protocol: Body weights were recorded on day 0 and day 7 (Table 4B). On day 7, animals were sacrificed and organs were observed.
A further data set has as its target T1, AR (Rattus norvegicus, UniProt P15207).
T1 sequence (P15207 1-902): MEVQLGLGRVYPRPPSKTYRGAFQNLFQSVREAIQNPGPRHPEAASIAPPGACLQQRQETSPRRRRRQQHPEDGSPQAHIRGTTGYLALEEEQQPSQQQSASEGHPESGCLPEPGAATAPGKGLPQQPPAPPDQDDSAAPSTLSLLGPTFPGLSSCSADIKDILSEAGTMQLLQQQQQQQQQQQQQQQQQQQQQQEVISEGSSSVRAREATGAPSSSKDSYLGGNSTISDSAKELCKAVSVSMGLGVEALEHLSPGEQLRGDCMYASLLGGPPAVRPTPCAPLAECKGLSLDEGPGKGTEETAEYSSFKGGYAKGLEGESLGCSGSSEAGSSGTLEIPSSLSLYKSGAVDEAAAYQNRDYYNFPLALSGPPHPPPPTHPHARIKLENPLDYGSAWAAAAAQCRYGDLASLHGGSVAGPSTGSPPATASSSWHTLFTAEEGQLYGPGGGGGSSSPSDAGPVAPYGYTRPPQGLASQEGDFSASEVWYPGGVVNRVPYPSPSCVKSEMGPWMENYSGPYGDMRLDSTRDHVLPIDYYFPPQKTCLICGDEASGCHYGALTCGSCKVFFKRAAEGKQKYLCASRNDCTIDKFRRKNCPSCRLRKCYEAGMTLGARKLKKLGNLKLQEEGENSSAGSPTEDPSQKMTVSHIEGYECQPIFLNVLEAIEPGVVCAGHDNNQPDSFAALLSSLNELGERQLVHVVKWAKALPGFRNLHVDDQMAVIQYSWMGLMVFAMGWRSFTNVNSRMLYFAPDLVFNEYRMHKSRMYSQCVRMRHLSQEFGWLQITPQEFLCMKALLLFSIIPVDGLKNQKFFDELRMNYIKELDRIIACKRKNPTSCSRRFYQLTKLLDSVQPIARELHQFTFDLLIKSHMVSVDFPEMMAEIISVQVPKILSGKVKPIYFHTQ
The settings on record: castrated rats, 20 mg/kg for 13 days.

Where [6] appears, read: Table 9, Group 3, oral 30 mg/kg.
The mark [7] stands for this setting: male, Sprague Dawley, rat, in vivo, iv, 5 mg/kg.
Setting [8] is: male, Sprague Dawley, rat, in vivo, po, 5 mg/kg.
The mark [9] stands for this setting: male, Sprague Dawley, rat, in vivo, po, 20 mg/kg.
The mark [10] stands for this setting: male, Sprague Dawley, rat, in vivo, po, 30 mg/kg.
The mark [11] stands for this setting: male, Sprague Dawley, rat, in vivo, po, 60 mg/kg.

The values below come from US12202815B2, “Selective androgen receptor degrader (SARD) ligands and methods of use thereof” (priority 2018, dated 2025).

Several values for one entry are separate records, joined by “and”; a condition that tells them apart may be missing. Identical values can stand only once. Entries after “also recorded” stand apart in the source; their conditions may differ. Like-named read-outs stand apart in the source and are kept apart here.

Protocol for RLM metabolism half-life: as §1

In the case of `C[C@](O)(Cn1ccc2cc(F)ccc21)C(=O)Nc1ccc(C#N)c(C(F)(F)F)c1` [Compound 11], the “Degradation (% at 3 μM)” value with full length AR (3 μM, Table 3) is recorded as 60%. In addition, in [1], the “HLM Metabolism (H.L. min)” value is reported as 6 min.

With `C[C@](O)(Cn1ccc2cc(F)ccc21)C(=O)Nc1cnc(C#N)c(C(F)(F)F)c1` [Compound 47, (S)—N-(6-Cyano-5-(trifluoromethyl)pyridin-3-yl)-3-(5-fluoro-1H-indol-1-yl)-2-hydroxy-2-methylpropanamide], in [2], the “metabolism (in words)” value is “rapid metabolism”.

`C[C@](O)(Cn1nc(F)c2cc(F)ccc21)C(=O)Nc1cnc(C#N)c(C(F)(F)F)c1` [Compound 99, (S)—N-(6-Cyano-5-(trifluoromethyl)pyridin-3-yl)-3-(3,5-difluoro-1H-indazol-1-yl)-2-hydroxy-2-methylpropanamide]: the “metabolism (in words)” value in data set [2] was “rapid metabolism”.

One may read the AUC(0-inf) as total exposure, with the tail of the curve extrapolated. What is called AUC(0-t) is the area under the concentration-time curve up to a stated or last time point. The low end stands for less exposure, the high end for more exposure. As usually defined, the Cmax is the peak of the concentration-time curve. The Tmax is the time at which the peak concentration occurs. Usually half-life stands for the time in which the quantity being followed falls by half. A higher half-life goes with slow loss. With `C[C@](O)(Cn1cc(F)cn1)C(=O)Nc1ccc(C#N)c(C(F)(F)F)c1` [Compound 1002], in data set [3], the “serum drug level (bioavailability)” value came to 33 nM. For the same compound, in [1], the “HLM Metabolism (H.L. min)” value is on record as 82 min. In the data set “in vivo”, the concentration at 30 h worked out at 33 nM. Also, the “RLM Metebolism (H.L. min)” value in the data set “RLM metabolism half-life” was 78 min. In [4] (setting [6]), the “DN AUC0-24” value is given as 2070 (h * ng/mL)/(mg/kg) and the “DN Cmax” value is recorded as 111 (ng/mL)/(mg/kg). In addition, in data set [4] (setting [7]), the AUC0-24 was 9580 ng·h/mL, the total exposure AUC(0-inf) was 9600 ng·h/mL, the AUC(0-t) turned out to be 9580 ng·h/mL and the C0 is 2460 ng/mL. Further, in [4] (setting [7]), the peak concentration (Cmax) turned out to be 2290 ng/mL, the “DN AUC0-24” value is recorded as 1920, the time of peak concentration (Tmax) worked out at 0.083 h and the Vd was 2.14 L/kg. The compound also had a clearance in [4] (setting [7]) of 8.68 mL/min/kg. Also, in data set [4] (male, Sprague Dawley, rat, in vivo, iv, 5 mg/kg, elimination half-life), the half-life was 2.6 h. Moreover, the half-life in data set [4] (male, Sprague Dawley, rat, in vivo, iv, 5 mg/kg, t1/2) was 2.62 h. In data set [4] (setting [8]), the AUC0-24 is 6860 ng·h/mL, the total exposure AUC(0-inf) turned out to be 7050 ng·h/mL, the AUC(0-t) amounted to 6860 ng·h/mL and the peak concentration (Cmax) worked out at 526 ng/mL. In addition, in data set [4] (setting [8]), the “DN AUC0-24” value turned out to be 1370 and the Tmax came to 1 h. Besides, the half-life in data set [4] (male, Sprague Dawley, rat, in vivo, po, 5 mg/kg, t1/2) is 4.87 h. In addition, in data set [4] (setting [9]), the AUC0-t turned out to be 37000 ng·h/mL, the AUC(0-t) amounted to 37000 ng·h/mL, the concentration peaked (Cmax) at 2620 ng/mL and the “DN AUC0-24” value came out at 1850. The Tmax in data set [4] (setting [9]) amounted to 6 h. Also, in data set [4] (setting [10]), the concentration peaked (Cmax) at 3330 ng/mL and the Tmax stood at 12 h. In addition, in data set [4] (setting [11]), the AUC0-24 was found to be 77500 ng·h/mL, the AUC(0-t) was 77500 ng·h/mL, the highest level (Cmax) was 3800 ng/mL and the “DN AUC0-24” value is recorded as 1290. Moreover, the Tmax in data set [4] (setting [11]) came out at 1 h.

For `C[C@](O)(Cn1cc(C(F)(F)F)cn1)C(=O)Nc1ccc(C#N)c(C(F)(F)F)c1` [Compound 1017], in data set [2] (MLM), the “DMPK (MLM) T1/2 (min)” value is “Infinity”. In addition, the “HLM Metabolism (H.L. min)” value in [1] is 400 min. Further, the “RLM Metebolism (H.L. min)” value in the data set “RLM metabolism half-life” came to 400 min.

Regarding `C[C@](O)(Cn1cc(F)cn1)C(=O)Nc1cnc(C#N)c(C(F)(F)F)c1` [Compound 1022], the “Serum Conc.” value in data set [3] (Table 2, rats 20 mg/kg, 24-30 hours after last dose) was found to be 64 nM; in data set [3] (Table 3, 20 mg/kg Hershberger) it was 64 nM. Further, the “serum drug level (bioavailability)” value in data set [3] worked out at 64 nM. For the same compound, the “HLM Metabolism (H.L. min)” value in [1] worked out at 108 min. In addition, in “in vivo”, the concentration at 30 h was found to be 64 nM. In addition, the “RLM Metebolism (H.L. min)” value in the data set “RLM metabolism half-life” is listed as 146 min.

With `C[C@](O)(Cn1cc(-c2ccc(F)cc2)nn1)C(=O)Nc1ccc(C#N)c(C(F)(F)F)c1` [Compound 1045], the “pharmacokinetic properties (in words)” value in [3] (20 mg/kg Hershberger experiment) was “outstanding pharmacokinetic properties”.

For the compound `C[C@](O)(Cn1cc(C#N)cn1)C(=O)Nc1ccc(C#N)c(C(F)(F)F)c1` [Compound 1048], in [1], the “HLM Metabolism (H.L. min)” value amounted to 400 min. In addition, the “RLM Metebolism (H.L. min)” value in “RLM metabolism half-life” is on record as 86 min.

For the compound `C[C@](O)(Cn1cc(Br)c(F)n1)C(=O)Nc1ccc(C#N)c(C(F)(F)F)c1` [Compound 1058], in data set [5], the “Body wt. on sac. day” value is 430 g and 470 g. In addition, in data set [5], the “Day 0 body wt.” value is 430 g and 472 g. The “HLM Metabolism (H.L. min)” value in data set [1] was found to be 138 min. The “RLM Metebolism (H.L. min)” value in “RLM metabolism half-life” worked out at 400 min. In addition, in data set [4] (20 mg/kg), the “decreased exposure at the same dose as 1065” value came to 37%. In addition, the “DN AUC0-24” value in data set [4] (Table 10, Group 1, oral 5 mg/kg/day) is listed as 5350 (h * ng/mL)/(mg/kg/day); in data set [4] (Table 10, Group 2, oral 10 mg/kg/day) it was 4460 (h * ng/mL)/(mg/kg/day); in [4] (Table 10, Group 3, oral 20 mg/kg/day), 3200 (h * ng/mL)/(mg/kg/day); in [4] (Table 10, Group 4, oral 30 mg/kg/day) it was 2380 (h * ng/mL)/(mg/kg/day); in data set [4] (Table 10, Group 5, iv 10 mg/kg Day 1) it was 4550 (h * ng/mL)/(mg/kg/day).

`C[C@](O)(Cn1cc(Cl)c(Br)n1)C(=O)Nc1ccc(C#N)c(C(F)(F)F)c1` [Compound 1066, (S)-3-(3-Bromo-4-chloro-1H-pyrazol-1-yl)-N-(4-cyano-3-(trifluoromethyl)phenyl)-2-hydroxy-2-methylpropanamide]: the “HLM Metabolism (H.L. min)” value in data set [1] is 319 min. Further, the “RLM Metebolism (H.L. min)” value in “RLM metabolism half-life” turned out to be 300 min.

Consider `C[C@](O)(Cn1ncc(Cl)c1Br)C(=O)Nc1ccc(C#N)c(C(F)(F)F)c1` [Compound 1067, (S)-3-(5-Bromo-4-chloro-1H-pyrazol-1-yl)-N-(4-cyano-3-(trifluoromethyl)phenyl)-2-hydroxy-2-methylpropanamide], for which, in the data set on full length AR (first value of the pair, 1 μM), the “SARD Activity Full Length % inhibition at 1 μM” value came out at 61%. The “SARD Activity Full Length % inhibition at 10 μM” value in the data set on full length AR (second value of the pair, 10 μM) turned out to be 86%.

Turning to `C[C@](O)(COc1ccc(C#N)cc1)C(=O)Nc1ccc(C#N)c(C(F)(F)F)c1` [Enobosarm], at AR, the “SV and VP re-growth, % of intact vehicle” value is 50-60%. Further, the “agonist activity in ventral prostate and seminal vesicles (in words)” value on AR (20 mg/kg) is “partial agonist; also recorded: significant agonism”.
